# Test results taken from patent US11820766B2, “Monoacylglycerol lipase modulators” (Janssen Pharmaceutica NV, priority 2018, dated 2023).
# Molecular target: T1, human MGL from HeLa cells (Homo sapiens, UniProt Q99685)
# T1 construct: combining endogenously expressed MGL from HeLa cells with test compounds; endogenous in cells; host or cells: HeLa cells / cell homogenates
# T1 sequence (Q99685 1-303): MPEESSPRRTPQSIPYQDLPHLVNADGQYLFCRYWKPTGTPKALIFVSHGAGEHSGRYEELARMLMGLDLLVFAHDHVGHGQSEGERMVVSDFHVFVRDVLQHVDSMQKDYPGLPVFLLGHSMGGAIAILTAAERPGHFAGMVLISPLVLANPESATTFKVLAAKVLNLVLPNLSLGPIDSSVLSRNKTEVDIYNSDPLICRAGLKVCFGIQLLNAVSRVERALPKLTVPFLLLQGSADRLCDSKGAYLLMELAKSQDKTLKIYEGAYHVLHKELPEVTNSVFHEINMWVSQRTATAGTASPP
# Assay: In vitro MGL activity assay: [glycerol-1,3-3H]-oleyl glycerol cleavage by MGL from HeLa cells
# Assay type: biochemical
# Settings: 300 nM [Glycerol-1,3-3H]-oleyl glycerol, one hour
# Text: MGL is the predominant hydrolase in HeLa cells/cell homogenates.
row,SMILES,IC50
1,"C[C@H]1c2nn(C)c(-c3cc(F)c(F)c(F)c3)c2CCN1C(=O)c1cccc2c1COCC2 [Example 579, [(7S)-2,7-Dimethyl-3-(3,4,5-trifluorophenyl)-5,7-dihydro-4H-pyrazolo[3,4-c]pyridin-6-yl]-isochroman-8-yl-methanone]",8.18 nM
2,"COc1nccc(C(=O)N2CCc3c(nn(C)c3-c3ccc(F)c(C(F)F)c3)[C@@H]2C)c1C [Example 593, [(7S)-3-[3-(Difluoromethyl)-4-fluoro-phenyl]-2,7-dimethyl-5,7-dihydro-4H-pyrazolo[3,4-c]pyridin-6-yl]-(2-methoxy-3-methyl-4-pyridyl)methanone]",57 nM
3,"C[C@H]1c2nn(C)c(-c3cc(F)c(F)c(F)c3)c2CCN1C(=O)c1ncnc2c1ccn2C [Example 466, [(7S)-2,7-Dimethyl-3-(3,4,5-trifluorophenyl)-5,7-dihydro-4H-pyrazolo[3,4-c]pyridin-6-yl]-(7-methylpyrrolo[2,3-d]pyrimidin-4-yl)methanone]",5.86 nM
4,"Cc1nc2cc(F)ccn2c1C(=O)N1CCc2c(nn(C)c2-c2cc(F)c(F)c(F)c2)[C@@H]1C [Example 402, [(7S)-2,7-Dimethyl-3-(3,4,5-trifluorophenyl)-5,7-dihydro-4H-pyrazolo[3,4-c]pyridin-6-yl]-(7-fluoro-2-methyl-imidazo[1,2-a]pyridin-3-yl)methanone]",21.6 nM
5,"Cc1cc(C(=O)N2CCc3c(nn(C)c3-c3cc(F)c(F)c(F)c3)[C@@H]2C)c2cnn(C)c2n1 [Example 424, (1,6-Dimethylpyrazolo[3,4-b]pyridin-4-yl)-[(7S)-2,7-dimethyl-3-(3,4,5-trifluorophenyl)-5,7-dihydro-4H-pyrazolo[3,4-c]pyridin-6-yl]methanone]",10.7 nM
6,"Cc1nn(C)cc1C(=O)N1CCc2c(nn(C)c2-c2cc(F)c(F)c(F)c2)[C@@H]1C [Example 343, (1,3-Dimethylpyrazol-4-yl)-[(7S)-2,7-dimethyl-3-(3,4,5-trifluorophenyl)-5,7-dihydro-4H-pyrazolo[3,4-c]pyridin-6-yl]methanone]",308 nM
7,"C[C@H]1c2nn(C)c(-c3cc(F)c(F)c(F)c3)c2CCN1C(=O)c1cncc2cn[nH]c12 [Example 434, [(7S)-2,7-Dimethyl-3-(3,4,5-trifluorophenyl)-5,7-dihydro-4H-pyrazolo[3,4-c]pyridin-6-yl]-(1H-pyrazolo[4,3-c]pyridin-7-yl)methanone]",277 nM
8,"Cc1ccn2ncc(C(=O)N3CCc4c(nn(C)c4-c4cc(F)c(F)c(F)c4)[C@@H]3C)c2c1 [Example 383, [(7S)-2,7-Dimethyl-3-(3,4,5-trifluorophenyl)-5,7-dihydro-4H-pyrazolo[3,4-c]pyridin-6-yl]-(5-methylpyrazolo[1,5-a]pyridin-3-yl)methanone]",6.39 nM
9,"Cc1c(C(=O)N2CCc3c(nn(C)c3-c3cc(F)c(F)c(F)c3)[C@@H]2C)nn2c1OCCC2 [Example 555, [(7S)-2,7-Dimethyl-3-(3,4,5-trifluorophenyl)-5,7-dihydro-4H-pyrazolo[3,4-c]pyridin-6-yl]-(3-methyl-6,7-dihydro-5H-pyrazolo[5,1-b][1,3]oxazin-2-yl)methanone]",183 nM
10,"C[C@H]1c2nn(C)c(-c3cc(F)c(F)c(F)c3)c2CCN1C(=O)c1n[nH]c2ccccc12 [Example 361, [(7S)-2,7-Dimethyl-3-(3,4,5-trifluorophenyl)-5,7-dihydro-4H-pyrazolo[3,4-c]pyridin-6-yl]-(1H-indazol-3-yl)methanone]",14.6 nM

# Same assay, conditions: 300 nM [Glycerol-1,3-3H]-oleyl glycerol, one hour incubation
row,SMILES,IC50
1,"C[C@H]1c2nn(C(F)F)c(-c3cc(F)c(F)c(F)c3)c2CCN1C(=O)c1ccc2ncccc2c1 [Example 232, (S)-(2-(Difluoromethyl)-7-methyl-3-(3,4,5-trifluorophenyl)-2,4,5,7-tetrahydro-6H-pyrazolo[3,4-c]pyridin-6-yl)(quinolin-6-yl)methanone]",5.57 nM
2,"Cn1nc2c(c1-c1ccccc1)CCN(C(=O)c1cccc3ccnn13)C2 [Example 75, (2-Methyl-3-phenyl-2,4,5,7-tetrahydro-6H-pyrazolo[3,4-c]pyridin-6-yl)(pyrazolo[1,5-a]pyridin-7-yl)methanone]",1800 nM
3,"COc1cccc(C(F)(F)F)c1C(=O)N1CCc2c(nn(C)c2-c2ccccc2)C1 [Example 5, (2-Methoxy-6-(trifluoromethyl)phenyl)(2-methyl-3-phenyl-2,4,5,7-tetrahydro-6H-pyrazolo[3,4-c]pyridin-6-yl)methanone]",> 10000 nM
4,"Cn1nc2c(c1-c1ccccc1)CCN(C(=O)c1onc3ccccc13)C2 [Example 55, Benzo[c]isoxazol-3-yl(2-methyl-3-phenyl-2,4,5,7-tetrahydro-6H-pyrazolo[3,4-c]pyridin-6-yl)methanone]",226 nM
5,"COc1cccc(C(=O)N2CCc3c(nn(C)c3-c3ccccc3)C2)c1Cl [Example 13, (2-Chloro-3-methoxyphenyl)(2-methyl-3-phenyl-2,4,5,7-tetrahydro-6H-pyrazolo[3,4-c]pyridin-6-yl)methanone]",16.8 nM
6,"COc1cccc(C(=O)N2CCc3c(nn(C)c3-c3cc(F)c(F)c(F)c3)[C@@H]2C)c1 [Example 260, [(7S)-2,7-Dimethyl-3-(3,4,5-trifluorophenyl)-5,7-dihydro-4H-pyrazolo[3,4-c]pyridin-6-yl]-(3-methoxyphenyl)methanone]",7.25 nM
7,"Cn1nc2c(c1-c1ccccc1)CCN(C(=O)c1noc3cc(Cl)ccc13)C2 [Example 54, (6-Chlorobenzo[d]isoxazol-3-yl)(2-methyl-3-phenyl-2,4,5,7-tetrahydro-6H-pyrazolo[3,4-c]pyridin-6-yl)methanone]",1120 nM
8,"CC1c2nn(C)c(-c3cc(F)cc(Cl)c3)c2CCN1C(=O)c1ccc2ncccc2c1 (stereo not shown) [Example 177, (3-(3-Chloro-5-fluorophenyl)-2,7-dimethyl-2,4,5,7-tetrahydro-6H-pyrazolo[3,4-c]pyridin-6-yl)(quinolin-6-yl)methanone]",15.9 nM
9,"Cc1ccc(-n2nccn2)c(C(=O)N2CCc3c(nn(C)c3-c3cc(F)c(F)c(F)c3)[C@@H]2C)n1 [Example 319, [(7S)-2,7-Dimethyl-3-(3,4,5-trifluorophenyl)-5,7-dihydro-4H-pyrazolo[3,4-c]pyridin-6-yl]-[6-methyl-3-(triazol-2-yl)-2-pyridyl]methanone]",255 nM
10,"CC1c2nn(C)c(-c3cn(C)c4ccccc34)c2CCN1C(=O)c1ccc2ncccc2c1 (stereo not shown) [Example 251, (2,7-Dimethyl-3-(1-methyl-1H-indol-3-yl)-2,4,5,7-tetrahydro-6H-pyrazolo[3,4-c]pyridin-6-yl)(quinolin-6-yl)methanone]",1890 nM
11,"Cn1nc2c(c1-c1cccc(F)c1)CCN(C(=O)c1ccc3ncccc3c1)C2 [Example 100, (3-(3-Fluorophenyl)-2-methyl-2,4,5,7-tetrahydro-6H-pyrazolo[3,4-c]pyridin-6-yl)(quinolin-6-yl)methanone]",125 nM
12,"C[C@H]1c2nn(C)c(-c3cc(F)c(F)c(F)c3)c2CCN1C(=O)c1cnn(C(C)(C)C)c1C(F)(F)F [Example 199, (S)-(1-(tert-Butyl)-5-(trifluoromethyl)-1H-pyrazol-4-yl)(2,7-dimethyl-3-(3,4,5-trifluorophenyl)-2,4,5,7-tetrahydro-6H-pyrazolo[3,4-c]pyridin-6-yl)methanone]",172 nM
